Test results published in patent US20110044938A1 (NYCOMED GMBH, priority 2006, published 2011).

Assays:
[1] = test system: subclones of RKO colon adenocarcinoma cells (RKOp27 or RKOp21) arrested by Ponasterone A; assay: Alamar Blue cell viability assay, cell cycle specific mode of action: cells arrested by ectopic p27Kip1 induced by Ponasterone A versus proliferating cells; format: cell-based; settings: Homo sapiens, RKO p27 induced (arrested) cells, 10 μM Ponasterone A, 72 hours, value = class bound given in Table A, read-out: −logIC50 RKO p27 induced (arrested) (converted)
Method in brief: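 Viability of proliferating versus Ponasterone A (10 μM)-arrested RKOp27/RKOp21 cells after 72 h compound exposure at 37° C, in quadruplicate. Read-out is Alamar Blue fluorescence (544/590 nm) normalised to untreated cells = 100%; values as −log IC50.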

[2] = test system: RKO (RKOp27) human colon adenocarcinoma cells; assay: Alamar Blue cell viability assay, anti-proliferative/cytotoxic activity on proliferating RKO subclones; format: cell-based; settings: RKOp27, 72 h, RKO p27 uninduced (proliferating) cells, value = class bound given in Table A, read-out: −logIC50 RKO p27 uninduced (proliferating) (converted)
Method in brief: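 Alamar Blue fluorescence (ex 544, em 590 nm) after 72 h compound exposure at 37 °C, 5% CO2, normalised to untreated controls set at 100%. Cells were seeded at 5000 per well and dosed 24 h later with serial semi-logarithmic dilutions in 10% FCS DMEM, four replicates each. −log IC50 [mol/l] was derived from concentration-effect curves.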

Structure (SMILES)	IC50 [1] [nM]	IC50 [2] [nM]
COc1cccc(C(C)CC(=O)Nc2sc3c(c2C#N)CCC(COC(=O)NCc2cncn2C)C3)c1 (centres unmarked) [Example 331, (3-Methyl-3H-imidazol-4-ylmethyl)-carbamic acid 3-cyano-2-[3-(3-methoxy-phenyl)-butanoylamino]-4,5,6,7-tetrahydro-benzo[b] thiophen-6-ylmethyl ester]	≥ 10000	501 to 2000
COc1cccc(C(C)CC(=O)Nc2sc3c(c2C#N)CCC(COC(=O)NCc2ccnn2C)C3)c1 (centres unmarked) [Example 332, (2-Methyl-2H-pyrazol-3-ylmethyl)-carbamic acid 3-cyano-2-[3-(3-methoxy-phenyl)-butanoylamino]-4,5,6,7-tetrahydro-benzo[b] thiophen-6-ylmethyl ester]	≥ 50100	501 to 2000
COc1cccc(C(C)CC(=O)Nc2sc3c(c2C#N)CCC(COC(=O)NCc2cnn(C)c2)C3)c1 (centres unmarked) [Example 333, (1-Methyl-1H-pyrazol-4-ylmethyl)-carbamic acid 3-cyano-2-[3-(3-methoxy-phenyl)-butanoylamino]-4,5,6,7-tetrahydro-benzo[b]thiophen-6-ylmethyl ester]	≥ 10000	501 to 2000
COc1cccc(C(C)CC(=O)Nc2sc3c(c2C#N)CCC(COC(=O)NCc2cc(C)on2)C3)c1 (centres unmarked) [Example 334, (5-Methyl-isoxazol-3-ylmethyl)-carbamic acid 3-cyano-2-[3-(3-methoxy-phenyl)-butanoylamino]-4,5,6,7-tetrahydro-benzo[b]thiophen-6-ylmethyl ester]	≥ 50100	≤ 501
COc1cccc(C(C)CC(=O)Nc2sc3c(c2C#N)CCC(COC(=O)NC(C)c2cccnc2)C3)c1 (centres unmarked) [Example 335, (1-Pyridin-3-yl-ethyl)-carbamic acid 3-cyano-2-[3-(3-methoxy-phenyl)-butanoylamino]-4,5,6,7-tetrahydro-benzo[b] thiophen-6-ylmethyl ester]	≥ 50100	501 to 2000
COc1cccc(C(C)CC(=O)Nc2sc3c(c2C#N)CCC(COC(=O)NCc2c[nH]nc2C)C3)c1 (centres unmarked) [Example 336, (3-Methyl-1H-pyrazol-4-ylmethyl)-carbamic acid 3-cyano-2-[3-(3-methoxy-phenyl)-butanoylamino]-4,5,6,7-tetrahydro-benzo[b] thiophen-6-ylmethyl ester]	≥ 10000	501 to 2000
COc1cccc(C(C)CC(=O)Nc2sc3c(c2C#N)CCC(COC(=O)NC(C)c2ccnn2C)C3)c1 (centres unmarked) [Example 337, [1-(2-Methyl-2H-pyrazol-3-yl)-ethyl]-carbamic acid 3-cyano-2-[3-(3-methoxy-phenyl)-butanoylamino]-4,5,6,7-tetrahydro-benzo[b] thiophen-6-ylmethyl ester]	≥ 50100	501 to 2000
COc1cccc(C(C)CC(=O)Nc2sc3c(c2C#N)CCC(COC(=O)NCc2cccn2C)C3)c1 (centres unmarked) [Example 338, (1-Methyl-1H-pyrrol-2-ylmethyl)-carbamic acid 3-cyano-2-[3-(3-methoxy-phenyl)-butanoylamino]-4,5,6,7-tetrahydro-benzo[b]thiophen-6-ylmethyl ester]	≥ 50100	501 to 2000
COc1cccc(C(C)CC(=O)Nc2sc3c(c2C#N)CCC(COC(=O)NCc2cn(C)nc2C)C3)c1 (centres unmarked) [Example 339, (1,3-Dimethyl-1H-pyrazol-4-ylmethyl)-carbamic acid 3-cyano-2-[3-(3-methoxy-phenyl)-butanoylamino]-4,5,6,7-tetrahydro-benzo[b] thiophen-6-ylmethyl ester]	≥ 50100	501 to 2000
COc1cccc(C(C)CC(=O)Nc2sc3c(c2C#N)CCC(COC(=O)NCc2cc(C)nn2C)C3)c1 (centres unmarked) [Example 340, (2,5-Dimethyl-2H-pyrazol-3-ylmethyl)-carbamic acid 3-cyano-2-[3-(3-methoxy-phenyl)-butanoyl-amino]-4,5,6,7-tetrahydro-benzo[b]thiophen-6-ylmethyl ester]	≥ 10000	501 to 2000
